Source: patent US12570536B2, “Ammonia synthesis methods and systems” (President and Fellows of Harvard College, priority 2016, dated 2026)

What was measured:
[1] = molecular target: nitrogenase; conditions: competitive inhibition of nitrogenase; cited from earlier work
[2] = system: X. autotrophicus; assay: Extracellular NH3 production by the CoPi|Co-P|X. autotrophicus hybrid device after addition of a GS inhibitor; type: cell-based, Xanthobacter autotrophicus
Excerpt: A reactor used in the experiments included a biocompatible water splitting catalyst system including a cobalt-phosphorous (Co—P) alloy cathode for the hydrogen evolution reaction (HER) and a cobalt phosphate (CoPi) anode for the oxygen evolution reaction (OER). This system enabled the use of a low driving voltage (Eappl) while producing the desired hydrogen for use in producing ammonia. Specifically, NH3 synthesis from N2 and H2O was accomplished using the water splitting system and driving the N2 reduction reaction within H2-oxidizing, autotrophic microorganisms. In this case, Xanthobacter autotrophicus (X. autotrophicus) was used. X. autotrophicus is a gram-negative bacterium that belongs to a small group of diazotrophs, which at micro-aerobic condition (less than about 5% O2) can use H2 as their sole energy source to fix CO2 and N2 into biomass. Therefore, in this experimental setup, electrochemical water splitting generated H2 as the biological energy source and in the same reactor X. autotrophicus acted as the room-temperature N2 reduction reaction catalyst to convert H2 and N2 into NH3.
The electrodes included a Co—P cathode for the hydrogen evolution reaction and a CoPi anode for the oxygen evolution reaction. A gas mixture including 2% O2, 20% CO2, and 78% N2 was bubbled through the solution at a flow rate of greater than or equal to 5 mL/min to maintain a micro-aerobic environment.
At the beginning of each experiment, X. autotrophicus was inoculated into the organic-free minimal medium without any nitrogen supplement. A constant driving voltage (Eappl=3.0 V) was applied to the CoPi|Co—P catalyst system, and aliquots were periodically sampled for the quantification of biomass (optical density at 600 nm, OD600) as well as fixed nitrogen (colorimetric assay).
The hybrid device is capable of excreting synthesized NH3 into an extracellular medium. Previous biochemical assays and genome sequencing on this strain indicate that the NH3 generated from nitrogenase is incorporated into biomass via a two-step process mediated by glutamine synthetase (GS) and glutamate synthase (GOGAT) (FIGS. 1 and 5). If the functionality of this NH3 assimilation pathway is disrupted, direct production of an extracellular NH3 fertilizer solution is realized. It has been reported that GS inhibitors can be used for NH3 secretion in sugar-fementating diazotrophs. As a proof of principle, glufosinate (PPT), a specific GS inhibitor commercially used as herbicide, was used to block the NH3 assimilation pathway and allow the synthesized NH3 to passively diffuse out into the extracellular medium (pathway 2 in FIG. 1, and FIG. 5). After the addition of PPT, the biomass of X. autotrophicus stagnated, while Ntotal and the concentration of free NH3 in the solution (NNH3) increased (FIG. 6). […]

[3] = end of experiments, after PPT addition, n=3

SMILES	inhibition constant Kis(D2) [1] [kPa]	biomass of X. autotrophicus after addition ([2]; after the addition of PPT, FIG. 6)	concentration of free NH3 in the solution (NNH3) ([2]; end of experiments, after PPT addition) [mM]	accumulated Ntotal [2, 3] [mg/L]	concentration of free NH3 in the solution (NNH3) [2, 3] [mg/L]
[HH] [H2]	~11	–	–	–	–
CP(=O)(O)CCC(N)C(=O)O (centres unmarked) [PPT, glufosinate]	–	stagnated	~0.8	47 ± 3	11 ± 2
